Measurements from patent US5767129A, “Substituted quinolines and isoquinolines as calcium channel blockers, their preparation and the use thereof” (Warner-Lambert Company, priority 1996, dated 1998).

Legend:
[1] = target: T1, N-type calcium channels (IMR-32 cells) (Homo sapiens, UniProt Q00975); assay: N-type Ca2+ channel blocking in IMR-32 cells using the fluorescent Ca2+ indicator Indo-1; format: cell-based; conditions: 5 μM nitrendipine to block L-type channels, KCl depolarization, 30° C., read-out: Inhibition of Ca^+2 Influx in IMR-32 Cells IC50
T1 construct: host or cells: IMR-32 cells, differentiated with dibutyryl cAMP and bromodeoxyuridine
T1 sequence (Q00975 whole entry): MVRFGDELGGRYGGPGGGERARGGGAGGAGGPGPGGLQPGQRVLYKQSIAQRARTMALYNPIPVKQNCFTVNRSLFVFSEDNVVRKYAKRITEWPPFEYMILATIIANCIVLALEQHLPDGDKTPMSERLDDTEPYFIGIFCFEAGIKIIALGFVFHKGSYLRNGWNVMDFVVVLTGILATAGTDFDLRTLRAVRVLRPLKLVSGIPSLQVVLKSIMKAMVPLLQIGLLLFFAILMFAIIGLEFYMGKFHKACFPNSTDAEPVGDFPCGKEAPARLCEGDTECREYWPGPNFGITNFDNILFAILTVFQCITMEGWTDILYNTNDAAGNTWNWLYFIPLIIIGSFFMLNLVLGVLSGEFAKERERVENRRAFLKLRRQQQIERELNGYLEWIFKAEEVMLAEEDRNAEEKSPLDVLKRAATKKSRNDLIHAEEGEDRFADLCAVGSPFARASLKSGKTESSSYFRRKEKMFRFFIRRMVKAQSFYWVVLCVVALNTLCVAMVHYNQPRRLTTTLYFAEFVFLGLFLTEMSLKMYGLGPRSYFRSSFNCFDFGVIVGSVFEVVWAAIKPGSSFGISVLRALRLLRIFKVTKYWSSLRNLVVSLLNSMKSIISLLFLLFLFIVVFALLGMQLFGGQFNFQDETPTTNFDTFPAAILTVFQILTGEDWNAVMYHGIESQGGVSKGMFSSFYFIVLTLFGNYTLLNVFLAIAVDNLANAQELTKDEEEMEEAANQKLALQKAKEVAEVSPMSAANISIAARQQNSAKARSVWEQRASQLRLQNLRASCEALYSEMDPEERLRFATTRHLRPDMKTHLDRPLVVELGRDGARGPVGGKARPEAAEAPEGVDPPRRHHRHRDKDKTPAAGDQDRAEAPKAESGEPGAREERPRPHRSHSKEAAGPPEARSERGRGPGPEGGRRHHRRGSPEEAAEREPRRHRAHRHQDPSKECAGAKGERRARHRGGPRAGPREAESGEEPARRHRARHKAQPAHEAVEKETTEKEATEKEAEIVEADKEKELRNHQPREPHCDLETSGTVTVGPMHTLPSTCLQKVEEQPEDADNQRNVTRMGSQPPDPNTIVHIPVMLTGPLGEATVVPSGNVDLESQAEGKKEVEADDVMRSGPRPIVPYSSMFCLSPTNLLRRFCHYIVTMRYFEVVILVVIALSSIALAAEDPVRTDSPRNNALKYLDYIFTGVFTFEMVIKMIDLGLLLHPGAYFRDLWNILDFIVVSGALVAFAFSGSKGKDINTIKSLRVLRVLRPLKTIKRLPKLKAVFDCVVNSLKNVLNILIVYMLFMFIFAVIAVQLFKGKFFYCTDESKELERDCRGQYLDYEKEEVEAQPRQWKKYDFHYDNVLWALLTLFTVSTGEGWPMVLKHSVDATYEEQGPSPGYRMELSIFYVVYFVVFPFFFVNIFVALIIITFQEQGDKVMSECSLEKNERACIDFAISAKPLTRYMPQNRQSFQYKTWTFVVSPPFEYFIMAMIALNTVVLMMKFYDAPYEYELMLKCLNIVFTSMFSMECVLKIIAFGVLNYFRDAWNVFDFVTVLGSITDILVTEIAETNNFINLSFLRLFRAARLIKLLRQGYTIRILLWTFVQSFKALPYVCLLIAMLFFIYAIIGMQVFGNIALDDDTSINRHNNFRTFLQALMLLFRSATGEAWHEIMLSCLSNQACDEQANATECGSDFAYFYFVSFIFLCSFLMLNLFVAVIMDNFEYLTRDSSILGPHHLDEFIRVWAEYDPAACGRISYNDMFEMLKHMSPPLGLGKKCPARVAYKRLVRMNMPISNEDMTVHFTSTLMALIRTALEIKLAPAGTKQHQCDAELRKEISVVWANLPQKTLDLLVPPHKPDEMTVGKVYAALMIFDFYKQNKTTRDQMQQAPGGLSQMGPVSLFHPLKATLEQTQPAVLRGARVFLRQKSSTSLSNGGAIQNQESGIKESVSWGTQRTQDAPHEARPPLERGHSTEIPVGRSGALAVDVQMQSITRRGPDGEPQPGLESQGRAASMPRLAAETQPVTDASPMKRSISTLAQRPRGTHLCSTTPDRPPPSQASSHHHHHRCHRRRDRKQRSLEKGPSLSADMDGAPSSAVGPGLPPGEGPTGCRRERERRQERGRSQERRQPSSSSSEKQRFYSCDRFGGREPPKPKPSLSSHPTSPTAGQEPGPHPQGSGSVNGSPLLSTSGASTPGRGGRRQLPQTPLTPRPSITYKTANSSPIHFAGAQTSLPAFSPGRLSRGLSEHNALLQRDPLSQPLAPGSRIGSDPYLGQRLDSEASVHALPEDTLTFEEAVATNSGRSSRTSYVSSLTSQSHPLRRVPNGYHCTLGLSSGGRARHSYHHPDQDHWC
Description: Measurement of N-type Ca2+ Channel Blocking Potencies of Compounds in IMR-32 Cells Using the Fluorescent Ca2+ Indicator Indo-1 IMR-32 cells are a human tumoral cell line of neural origin. […] Calcium flux into these cells may be induced by stimulation with elevated potassium concentrations. The L-channel component of calcium flux may be blocked by adding 5 μM nitrendipine. The remaining component of calcium entry into the IMR-32 cells is due to calcium flux through N-type calcium channels. Intracellular calcium concentrations are measured using the fluorescent calcium indicator Indo-1. The effect of drug concentration on calcium uptake is studied. Methods The IMR-32 cell line was obtained from the American Type Culture Collection (Rockville, Md.). Cells were grown in Eagle's Minimum Essential Medium with Earle's salts supplemented with 10% fetal bovine serum, 2 mM L-Gln and antibiotic/antimicotic mixture (Gibco). At approximately 80% confluency, differentiation was induced by the addition of 1 mM dibutyryl cAMP and 2.5 μM bromodeoxyuridine to the medium. After 7 to 13 days of differentiation, cells were detached using 0.5 mM EDTA and loaded with five 5 μM Indo-1 acetoxymethyl ester (Molecular Probes, Eugene, Oreg.) at 30° C. for 45 minutes. Loaded cells were washed twice, resuspended (~10^7 cells/mL) in assay buffer (10 mM HEPES/Tris pH 7.4 in Hank's Balanced Salt Solution without bicarbonate or phenol red containing 0.5% bovine serum albumin) and kept on ice until use. Fluorescence measurements were carried out in a Photon Technology International (PTI, South Brunswick, N.J.) Model RF-[…] spectrofluorometer with dual emission monochromators using excitation at 350 nm and emission at 400 and 490 nm. The instrument was equipped with a thermostatted cuvette holder with stirring capabilities as well as with a computer-controlled pump which allowed for reagent addition during measurement. Instrument control and data collection was done by PTI's OSCAR software running on an IBM compatible computer. […] At 20 seconds after the start of reading, cells were depolarized by the addition of 160 μL of stimulation solution (1M KCl, 68 mM CaCl2) to the cuvette via the computer-controlled pump. Ratio of dual emission signals (400 nm/490 nm), which is proportional to intracellular Ca^2+ concentration, was plotted against time, and the difference between maximal response after stimulation and basal value (before stimulation) was determined. […] IC50 values of test compounds were calculated by fitting a four-parameter logistic function to the data using the least squares method.

[2] = test system: ischemia and pain; conditions: Bowersox et al. 1994; cited from earlier work

SMILES | IC50 [1] [nM] | activity in models of ischemia and pain (in words) [2]
c1ccc(C(CCCN2CCc3c(ccc4c3OCN(C3CCCCC3)C4)C2)c2ccccc2)cc1 [Example 8, 2-Cyclohexyl-7-(4,4-diphenylbutyl)-2,3,5,6,7,8-hexahydro-1H-4-oxa-2,7-diazaphenanthrene] | 1100 | 
CSCC[C@@H]1NC(=O)[C@H](CC(C)C)NC(=O)[C@H](CCCNC(=N)N)NC(=O)[C@H](CO)NC(=O)[C@@H]2CSSC[C@@H]3NC(=O)[C@H](CO)NC(=O)CNC(=O)[C@H]([C@@H](C)O)NC(=O)[C@H](CSSC[C@H](N)C(=O)N[C@@H](CCCCN)C(=O)NCC(=O)N[C@@H](CCCCN)C(=O)NCC(=O)N[C@@H](C)C(=O)N[C@@H](CCCCN)C(=O)N2)NC(=O)[C@H](CSSC[C@@H](C(N)=O)NC(=O)[C@H](CCCCN)NC(=O)CNC(=O)[C@H](CO)NC(=O)[C@H](CCCNC(=N)N)NC3=O)NC(=O)[C@H](CC(=O)O)NC(=O)[C@H](Cc2ccc(O)cc2)NC1=O [SNX-111] |  | demonstrated activity in a number of models of ischemia and pain
Oc1c(CN2CCCCCC2)ccc2c1CCN(CCCC(c1ccc(F)cc1)c1ccc(F)cc1)C2 [Example 11, 6-Azepan-1-ylmethyl-2-[4,4-bis-(4-fluorophenyl)-butyl]-1,2,3,4-tetrahydroisoquinolin-5-ol] | 1300 | 

Now from value to molecule, other results behind:

IC50 [1] [nM] | SMILES | activity in models of ischemia and pain (in words) [2]
1000 | Oc1c(CNC2CCCCC2)ccc2c1CCN(CCCC(c1ccccc1)c1ccccc1)C2 [Example 7, 6-Cyclohexylaminomethyl-2-(4,4-diphenylbutyl)-1,2,3,4-tetrahydroisoquinolin-5-ol] | 
820 | Oc1c(CN2CCCCCC2)ccc2c1CCN(CCCC(c1ccccc1)c1ccccc1)C2 [Example 6, 6-Azepan-1-ylmethyl-2-(4,4-diphenylbutyl)-1,2,3,4-tetrahydroisoquinolin-5-o] | 
